Source: US20050142169A1, “Palatability enhanced composition and method for animal consumption” (priority 2003, published 2005)
Where two headings read alike, the source gives them in different places.

How the values were obtained:
dogs [1] = details: for Intake Ratio / Preference (%) control composition / Preference (%) test composition / Status (vs. control): dry wt. of kibble, dogs, Hill's Canine Maintenance Adult
Text: The experiment comprised mixing various amounts of 2,5-dimethyl-4-hydroxy-3(2H)-furanone (0.2% to 1.2%) with a commercial liquid palatant enhancer as a carrier to form a flavored palatant (hereinafter test flavor). The test flavor (2.0%, dry weight basis) was topically applied to a dry, commercial dog food (Hill's Canine Maintenance Adult, a Science Diet for adult dogs commercially available from Hill's Pet Nutrition, Inc., Topeka, Kans.) after sequential application of soy bean oil (1.2%, dry weight basis) and choice white grease (7.9%, dry weight basis) to form a test composition.
Each test composition was compared against a control composition in a palatability test. The control compositions were prepared by topically applying the commercial liquid palatant enhance (2.0% dry weight basis) to the dry, commercial dog food (Hill's Canine Maintenance Adult) after sequential application of soy bean oil (1.2%, dry weight basis) and choice white grease (7.9%, dry weight basis). Palatability was determined by comparing the test composition and the control composition in a standard two-bowl preference test over two days with 20 dogs.

dogs [2] = test: two-bowl preference test, Example 2 (Canine r/d); format: in vivo, dog; details: dry wt. of kibble
Description: Each of the test flavors (2.0%, dry weight basis) was topically applied to a dry, commercial dog food (Canine r/d from Hill's Pet Nutrition, Inc.) after sequential application of soy bean oil (2.0%, dry weight basis) and choice white grease (0.4%, dry weight basis) to form a test composition. Each test composition was compared against a control composition in a palatability test as described in Example 1. The control compositions were prepared by topically applying the commercial liquid palatant enhancer (2.0% dry weight basis) to the dry, commercial dog food (Canine r/d) after sequential application of soy bean oil (2.0%, dry weight basis) and choice white grease (0.4%, dry weight basis). Palatability was determined by comparing the test composition and the control composition in a standard two-bowl preference test over two days with 20 dogs as described in Example 1.

dogs [3] = test: two-bowl preference test, Example 3 (Canine w/d, 3.5% test flavor); format: in vivo, dog; details: dry wt. of kibble, test flavor 3.5%
Description: Each of the test flavors (3.5%, dry weight basis) was topically applied to a dry, commercial dog food (Canine w/d from Hill's Pet Nutrition, Inc.) after topical application of a commercial dry palatant enhancer in choice white grease (0.6%, dry weight basis) to form a test composition. Each test composition was compared against a control composition in a palatability test as described in Example 1. The control compositions were prepared by topically applying the commercial liquid palatant enhancer (3.5% dry weight basis) to the dry, commercial dog food (Canine w/d) after application of a commercial dry palatant enhancer in choice white grease (0.6%, dry weight basis). Palatability was determined by comparing the test composition and the control composition in a standard two-bowl preference test over two days with 20 dogs as described in Example 1.

cats = test: two-bowl preference test, Example 6 (Feline w/d); format: in vivo, cat; details: dry wt. of kibble
Text: Finally, a commercial dry palatant enhancer (1.4% dry weight basis) was topically applied to the dry kibbles to complete the test composition.

[4] = Exp. No. 7, second set of experiments, 1 ppm
[5] = Exp. No. 8, second set of experiments, 2 ppm
[6] = Exp. No. 9, second set of experiments, 3 ppm
[7] = Exp. No. 10, second set of experiments, 4 ppm
[8] = Exp. No. 11, second set of experiments, 5 ppm
[9] = Exp. No. 12, second set of experiments, 10 ppm

CC1=C(O)C(=O)C(C)O1 (stereo not shown) [2,5-dimethyl-4-hydroxy-3(2H)-furanone]
Intake Ratio (dogs [1]; Exp. No. 2, 43.5 ppm): 0.5705
Preference (%) control composition (dogs [1]; Exp. No. 2, 43.5 ppm): 27.8%
Preference (%) test composition (dogs [1]; Exp. No. 2, 43.5 ppm): 61.1%
Status (vs. control) (dogs [1]; Exp. No. 2, 43.5 ppm): Parity
Intake Ratio (dogs [1]; Exp. No. 3, 87.1 ppm): 0.7361
Preference (%) control composition (dogs [1]; Exp. No. 3, 87.1 ppm): 10.0%
Preference (%) test composition (dogs [1]; Exp. No. 3, 87.1 ppm): 90.0%
Status (vs. control) (dogs [1]; Exp. No. 3, 87.1 ppm): Win
Intake Ratio (dogs [1]; Exp. No. 4, 130.5 ppm): 0.5673
Preference (%) control composition (dogs [1]; Exp. No. 4, 130.5 ppm): 25.0%
Preference (%) test composition (dogs [1]; Exp. No. 4, 130.5 ppm): 50.0%
Status (vs. control) (dogs [1]; Exp. No. 4, 130.5 ppm): Win
Intake Ratio (dogs [1]; Exp. No. 5, 217.5 ppm): 0.6575
Preference (%) control composition (dogs [1]; Exp. No. 5, 217.5 ppm): 40.0%
Preference (%) test composition (dogs [1]; Exp. No. 5, 217.5 ppm): 60.0%
Status (vs. control) (dogs [1]; Exp. No. 5, 217.5 ppm): Win
Intake Ratio (dogs [1]; Exp. No. 6, 217.5 ppm): 0.8206
Preference (%) control composition (dogs [1]; Exp. No. 6, 217.5 ppm): 5.0%
Preference (%) test composition (dogs [1]; Exp. No. 6, 217.5 ppm): 95.0%
Status (vs. control) (dogs [1]; Exp. No. 6, 217.5 ppm): Win
intolerance of the test palatant following intake (dogs [1]; dog, in vivo): No evidence of any intolerance
Intake Ratio (dogs [2]; Exp. No. 1, 21.75 ppm): 0.5843
Preference (%) control composition (dogs [2]; Exp. No. 1, 21.75 ppm): 42.9%
Preference (%) test composition (dogs [2]; Exp. No. 1, 21.75 ppm): 50.0%
Status (vs. control) (dogs [2]; Exp. No. 1, 21.75 ppm): Parity
Intake Ratio (dogs [2]; Exp. No. 2, 43.5 ppm): 0.6667
Preference (%) control composition (dogs [2]; Exp. No. 2, 43.5 ppm): 16.7%
Preference (%) test composition (dogs [2]; Exp. No. 2, 43.5 ppm): 77.8%
Status (vs. control) (dogs [2]; Exp. No. 2, 43.5 ppm): Win
Intake Ratio (dogs [2]; Exp. No. 3, 87.1 ppm): 0.5732
Preference (%) control composition (dogs [2]; Exp. No. 3, 87.1 ppm): 29.4%
Preference (%) test composition (dogs [2]; Exp. No. 3, 87.1 ppm): 64.7%
Status (vs. control) (dogs [2]; Exp. No. 3, 87.1 ppm): Parity
Intake Ratio (dogs [2]; Exp. No. 4, 174.0 ppm): 0.5523
Preference (%) control composition (dogs [2]; Exp. No. 4, 174.0 ppm): 31.3%
Preference (%) test composition (dogs [2]; Exp. No. 4, 174.0 ppm): 50.0%
Status (vs. control) (dogs [2]; Exp. No. 4, 174.0 ppm): Parity
Intake Ratio (dogs [2]; Exp. No. 5, 217.5 ppm): 0.5047
Preference (%) control composition (dogs [2]; Exp. No. 5, 217.5 ppm): 66.7%
Preference (%) test composition (dogs [2]; Exp. No. 5, 217.5 ppm): 33.3%
Status (vs. control) (dogs [2]; Exp. No. 5, 217.5 ppm): Parity
Intake Ratio (dogs [2]; Exp. No. 6, 282.8 ppm): 0.4297
Preference (%) control composition (dogs [2]; Exp. No. 6, 282.8 ppm): 47.1%
Preference (%) test composition (dogs [2]; Exp. No. 6, 282.8 ppm): 52.9%
Status (vs. control) (dogs [2]; Exp. No. 6, 282.8 ppm): Parity
Intake Ratio (dogs [3]; Exp. No. 1, 87.1 ppm): 0.7301
Preference (%) control composition (dogs [3]; Exp. No. 1, 87.1 ppm): 16.7%
Preference (%) test composition (dogs [3]; Exp. No. 1, 87.1 ppm): 83.3%
Status (vs. control) (dogs [3]; Exp. No. 1, 87.1 ppm): Win
Intake Ratio (dogs [3]; Exp. No. 2, 130.5 ppm): 0.7323
Preference (%) control composition (dogs [3]; Exp. No. 2, 130.5 ppm): 8.0%
Preference (%) test composition (dogs [3]; Exp. No. 2, 130.5 ppm): 88.0%
Status (vs. control) (dogs [3]; Exp. No. 2, 130.5 ppm): Win
Intake Ratio (dogs [3]; Exp. No. 3, 174.0 ppm): 0.6669
Preference (%) control composition (dogs [3]; Exp. No. 3, 174.0 ppm): 24.0%
Preference (%) test composition (dogs [3]; Exp. No. 3, 174.0 ppm): 76.0%
Status (vs. control) (dogs [3]; Exp. No. 3, 174.0 ppm): Win
Intake Ratio (dogs [3]; Exp. No. 4, 217.5 ppm): 0.5713
Preference (%) control composition (dogs [3]; Exp. No. 4, 217.5 ppm): 40.0%
Preference (%) test composition (dogs [3]; Exp. No. 4, 217.5 ppm): 60.0%
Status (vs. control) (dogs [3]; Exp. No. 4, 217.5 ppm): Parity
Intake Ratio (cats; Exp. No. 1, 1 ppm): 0.7653
Preference (%) control composition (cats; Exp. No. 1, 1 ppm): 20.0%
Preference (%) test composition (cats; Exp. No. 1, 1 ppm): 80.0%
Status (vs. control) (cats; Exp. No. 1, 1 ppm): Win
Intake Ratio (cats; Exp. No. 2, 2 ppm): 0.8280
Preference (%) control composition (cats; Exp. No. 2, 2 ppm): 17.6%
Preference (%) test composition (cats; Exp. No. 2, 2 ppm): 82.6%
Status (vs. control) (cats; Exp. No. 2, 2 ppm): Win
Intake Ratio (cats; Exp. No. 3, 3 ppm): 0.9457
Preference (%) control composition (cats; Exp. No. 3, 3 ppm): 4.3%
Preference (%) test composition (cats; Exp. No. 3, 3 ppm): 95.7%
Status (vs. control) (cats; Exp. No. 3, 3 ppm): Win
Intake Ratio (cats; Exp. No. 4, 4 ppm): 0.8426
Preference (%) control composition (cats; Exp. No. 4, 4 ppm): 16.0%
Preference (%) test composition (cats; Exp. No. 4, 4 ppm): 84.0%
Status (vs. control) (cats; Exp. No. 4, 4 ppm): Win
Intake Ratio (cats; Exp. No. 5, 5 ppm): 0.8957
Preference (%) control composition (cats; Exp. No. 5, 5 ppm): 11.1%
Preference (%) test composition (cats; Exp. No. 5, 5 ppm): 88.9%
Status (vs. control) (cats; Exp. No. 5, 5 ppm): Win
Intake Ratio (cats; Exp. No. 6, 10 ppm): 0.8596
Preference (%) control composition (cats; Exp. No. 6, 10 ppm): 4.2%
Preference (%) test composition (cats; Exp. No. 6, 10 ppm): 95.8%
Status (vs. control) (cats; Exp. No. 6, 10 ppm): Win
Intake Ratio (cats; [4]): 0.9077
Preference (%) control composition (cats; [4]): 4.2%
Preference (%) test composition (cats; [4]): 95.8%
Status (vs. control) (cats; [4]): Win
Intake Ratio (cats; [5]): 0.7613
Preference (%) control composition (cats; [5]): 16.0%
Preference (%) test composition (cats; [5]): 84.0%
Status (vs. control) (cats; [5]): Win
Intake Ratio (cats; [6]): 0.8206
Preference (%) control composition (cats; [6]): 13.6%
Preference (%) test composition (cats; [6]): 86.4%
Status (vs. control) (cats; [6]): Win
Intake Ratio (cats; [7]): 0.8957
Preference (%) control composition (cats; [7]): 4.2%
Preference (%) test composition (cats; [7]): 95.7%
Status (vs. control) (cats; [7]): Win
Intake Ratio (cats; [8]): 0.8596
Preference (%) control composition (cats; [8]): 12.5%
Preference (%) test composition (cats; [8]): 87.5%
Status (vs. control) (cats; [8]): Win
Intake Ratio (cats; [9]): 0.7976
Preference (%) control composition (cats; [9]): 15.0%
Preference (%) test composition (cats; [9]): 85.0%
Status (vs. control) (cats; [9]): Win
